These results are taken from PMC3471877 (PLoS ONE, 2012).

Data set [1] addresses T1, ET receptors in human primary PASMC (Homo sapiens, UniProt P25101). The experiment in a line: cell-based. The note with it: ET-1 EC50–EC70.
Data set [2] has as its target T2, recombinant ETA receptor (Homo sapiens, UniProt P25101). The experiment in a line: cell-based.
Data set [3] concerns the target T2, recombinant ETA receptor. The note with it: read-out: Kb CHO-ETA; 120 min antagonist pre-incubation; ET-1 EC50–EC70; from IC50 via Cheng-Prusoff; geometric mean n = 3–8.
Data set [4] addresses T1, ET receptors in human primary PASMC. The note with it: for Kb: ET-1 EC50–EC70.
For data set [5], the target named is T3, recombinant ETB receptor (Homo sapiens, UniProt P24530). The note with it: read-out: Kb CHO-ETB; 120 min antagonist pre-incubation; ET-1 EC50–EC70; from IC50 via Cheng-Prusoff; geometric mean n = 3–8.
Data set [6] has as its target T1, ET receptors in human primary PASMC.
Data set [7] shares this target. The source holds these as a separate data set.
Data set [8] shares this target. The experiment in a line: cell-based. The note with it: 120 min pre-incubation.
For data set [9] the target is unchanged. The conditions noted are these: for proportion of receptors dissociated from within the first 30 seconds: estimated assuming 1:1 correlation between signal and receptor occupancy; for ROt1/2: estimated from first calcium response phase at 1 µM ET-1; for proportion of ET-1-induced signal with surmountable mode of antagonism: first calcium response phase, peak, 1 µM ET-1.

The target is the same in data set [10]. The experiment in a line: cell-based. The note with it: 120 min pre-incubation. The source holds these as a separate data set.
The test system of data set [11] is P2Y12. The conditions noted are these: cited from earlier work.
Data set [12] deals with angiotensin II receptor. The note with it: cited from earlier work.
Data set [13] addresses T3, recombinant ETB receptor. The experiment in a line: cell-based.
Setting [14] is: Kb 10 min, 10 min antagonist pre-incubation, geometric mean n = 6.
The mark [15] stands for this setting: Kb PASMC, Table 1, 120 min antagonist pre-incubation, from IC50 via Cheng-Prusoff, geometric mean n = 3–8.
[16] abbreviates: Kb 120 min, 120 min antagonist pre-incubation (steady state), geometric mean n = 6.
Setting [17] is: Kb1 (first calcium response phase), peak fluorescence, IC50 at 8 nM ET-1 via Cheng-Prusoff.
Setting [18] is: Kb2 (second sustained calcium response phase), AUC 3–23 min, IC50 at […] ET-1 via Cheng-Prusoff.
[19] abbreviates: Kb IP1 accumulation, 20 min ET-1 stimulation, IC50 at […] ET-1 via Cheng-Prusoff, n = 4.
Where [20] appears, read: Schild Kb IP1 accumulation, 90 min ET-1 stimulation, Gaddum/Schild regression, n = 3.

Where two headings read alike, the source gives them in different places. Square brackets hold non-standard residues; d marks the D form. Peptide text beside a SMILES is read from it. Where only a bound is given, the exact number is not on record here.

T3 sequence (P24530 27-442): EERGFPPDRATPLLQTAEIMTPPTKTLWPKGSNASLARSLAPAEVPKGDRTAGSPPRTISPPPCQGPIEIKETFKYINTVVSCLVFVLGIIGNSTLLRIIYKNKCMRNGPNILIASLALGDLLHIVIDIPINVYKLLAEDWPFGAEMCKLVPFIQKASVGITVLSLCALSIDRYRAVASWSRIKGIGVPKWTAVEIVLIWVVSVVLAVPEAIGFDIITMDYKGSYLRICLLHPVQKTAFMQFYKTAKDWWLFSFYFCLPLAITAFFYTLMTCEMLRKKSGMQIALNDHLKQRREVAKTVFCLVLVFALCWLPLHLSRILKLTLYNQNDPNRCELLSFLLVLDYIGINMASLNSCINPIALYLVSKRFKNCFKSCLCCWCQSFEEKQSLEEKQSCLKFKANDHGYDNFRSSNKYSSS
T2 sequence (P25101 21-427): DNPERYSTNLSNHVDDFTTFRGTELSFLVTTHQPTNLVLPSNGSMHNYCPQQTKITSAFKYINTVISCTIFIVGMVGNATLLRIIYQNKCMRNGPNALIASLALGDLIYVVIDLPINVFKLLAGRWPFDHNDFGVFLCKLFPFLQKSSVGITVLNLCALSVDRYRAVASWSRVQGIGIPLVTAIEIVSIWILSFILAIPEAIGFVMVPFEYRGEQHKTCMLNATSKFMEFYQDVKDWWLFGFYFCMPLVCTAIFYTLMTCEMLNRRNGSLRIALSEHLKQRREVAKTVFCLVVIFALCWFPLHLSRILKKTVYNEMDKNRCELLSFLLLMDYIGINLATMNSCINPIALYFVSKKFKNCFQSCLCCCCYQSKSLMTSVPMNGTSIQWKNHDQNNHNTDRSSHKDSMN
T1 sequence (P25101 21-427): as above

Consider `CC(C)C[C@@H]1NC(=O)[C@@H](C(C)C)NC(=O)[C@@H]2CCCN2C(=O)[C@@H](CC(=O)O)NC(=O)[C@@H](Cc2c[nH]c3ccccc23)NC1=O` [BQ-123] (cyclo(L[dW][dD]P[dV])), for which the Kb in data set [1] (setting [14]) was 0.61 nM; in [1] (setting [15]), 0.62 nM; in data set [2] it was 9.4 nM.
Regarding `CCCC[C@@H](NC(=O)[C@@H](Cc1cn(C(=O)OC)c2ccccc12)NC(=O)[C@H](CC(C)(C)C)NC(=O)N1[C@H](C)CCC[C@@H]1C)C(=O)O` [BQ-788], the Kb came to 277 nM in [3]; 121 nM in data set [4] (read-out: Kb 10 min, 10 min antagonist pre-incubation, geometric mean n = 6); 117 nM in data set [4] (read-out: Kb 120 min, 120 min antagonist pre-incubation (steady state), geometric mean n = 6); 117 nM in [4] (read-out: Kb PASMC, Table 1, 120 min antagonist pre-incubation, from IC50 via Cheng-Prusoff, geometric mean n = 3–8); 0.09 nM in [5]. Further, the Kb ratio in data set [4] (Kb 10 min versus 120 min pre-incubation (fold increase in potency)) is given as 1.0.
Regarding `COC(c1ccccc1)(c1ccccc1)[C@H](Oc1nc(C)cc(C)n1)C(=O)O` [ambrisentan], the Kb amounted to 0.11 nM in data set [1] (setting [14]), 0.12 nM in data set [1] (setting [16]), 1.1 nM in data set [10] (setting [19]) and 1.6 nM in data set [10] (setting [20]). In addition, the “mode of antagonism, IP1 accumulation” value in data set [6] (20 min ET-1 stimulation) is “surmountable”; in data set [6] (90 min ET-1 stimulation) it was “surmountable antagonism”. Further, the “receptor occupancy half-life (ROt1/2)” value in data set [7] was 0.667 min. The Ki – broadly, a measure of affinity in units of concentration, obtained from inhibition or displacement – is 0.27 nM in data set [8] (setting [17]) and 0.14 nM in [8] (setting [18]). In addition, the “proportion of receptors dissociated from within the first 30 seconds” value in data set [9] is around 30%. Moreover, in data set [9], the ROt1/2 is below 1 min. For the same compound, the “proportion of ET-1-induced signal with surmountable mode of antagonism” value (from here on “proportion of ET-1-induced signal”) in data set [9] is around 30%.
Turning to `COc1ccccc1Oc1c(NS(=O)(=O)c2ccc(C(C)(C)C)cc2)nc(-c2ncccn2)nc1OCCO` [bosentan], in data set [6] (20 min ET-1 stimulation), the “mode of antagonism, IP1 accumulation” value is reported as “surmountable”. Besides, the “mode of antagonism, IP1 accumulation” value in [6] (90 min ET-1 stimulation) was “surmountable antagonism”. Moreover, in data set [9], the “proportion of receptors dissociated from within the first 30 seconds” value was around 50%, the ROt1/2 is below 1 min and the “proportion of ET-1-induced signal” value is recorded as around 50%.
For the compound `COC(=O)[C@H](c1ccccc1Cl)N1CCc2sccc2C1` [clopidogrel], the binding mode entry in data set [11] is “irreversible binding”.
With `CCCCc1nc(Cl)c(CO)n1Cc1ccc(-c2ccccc2-c2nn[nH]n2)cc1` [losartan], the “shorter ROt1/2 compared to candesartan and olmesartan” value in data set [12] is recorded as 15–25 fold.
As to `CCCNS(=O)(=O)Nc1ncnc(OCCOc2ncc(Br)cn2)c1-c1ccc(Br)cc1` [macitentan], the Kb in data set [1] (setting [14]) came out at 0.86 nM; in data set [1] (setting [16]), 0.14 nM; in [10] (setting [19]) it was 0.74 nM; in [10] (setting [20]), 1.4 nM. In addition, the “mode of antagonism, IP1 accumulation” value in data set [6] (20 min ET-1 stimulation) is “insurmountable”; in [6] (20 min ET-1 stimulation, listed as Macitentan), “insurmountable antagonism”; in data set [6] (90 min ET-1 stimulation) it was “surmountable antagonism”. In addition, the “increase in ROt1/2 compared to ambrisentan and bosentan” value in [7] is recorded as around 15 fold. The “receptor occupancy half-life (ROt1/2)” value in data set [7] came to 17 min. In addition, the “loss in potency after washout” value in data set [7] (over 60 min after washout) came to 13 fold. The Ki in data set [8] (setting [17]) was 0.17 nM; in data set [8] (setting [18]), 0.093 nM. In data set [9] (AUC 3–23 min after ET-1), the “mode of antagonism, second sustained phase of calcium elevation” value is listed as “insurmountable”. For the same compound, the “proportion of ET-1-induced signal” value in data set [9] is “no surmountable behavior”.
In the case of `Cc1cc2c(cc1CC(=O)c1sccc1S(=O)(=O)Nc1onc(C)c1Cl)OCO2` [sitaxentan], the Kb in data set [1] (setting [14]) was found to be 2.9 nM; in data set [1] (setting [16]) it was 4.2 nM; in [1] (setting [15]) it was 4.2 nM; in data set [13] it was 4470 nM; in [2] it was 20 nM.
Take `COc1ccccc1Oc1c(NS(=O)(=O)c2ccc(C(C)C)cn2)nc(-c2ccnc(-c3nnn[nH]3)c2)nc1OCCO` [tezosentan]: the Kb was determined as 0.042 nM in [1] (setting [14]); 0.01 nM in data set [1] (setting [16]); 0.01 nM in [1] (setting [15]); 0.5 nM in data set [13]; 0.26 nM in data set [2].
As for `COc1nc(C)cnc1NS(=O)(=O)c1cccnc1-c1ccc(-c2nnco2)cc1` [zibotentan], the Kb in data set [13] was determined as 4390 nM.
